In patent US5021438A, “1,3,4,5-tetrahydrobenz(c,d)indoles” (Bayer Aktiengesellschaft, priority 1988, dated 1991):
Where a name gives a salt, the structure may show the parent alone.

Key:
5-HT1 receptor = assay: Affinity for the 5-HT1 receptor (receptor binding, 3H-serotonin radioligand, calf hippocampus membranes); conditions: calf hippocampus membrane preparations; 3H-Serotonin as radioligand
From the text: Affinity for the 5-HT1 receptor
The high affinity of the compounds according to the invention for 5-hydroxytryptamine receptors of the subtype 1 is represented by way of example in Table 1. The values indicated are data which have been determined from receptor binding studies with calf hippocampus membrane preparations. 3H-Serotonin was used for this as a radioactively labelled ligand.

[1] = tested on: "behavioral despair" behavior; assay: "behavioral despair" behavior according to Porsolt et al.; assay type: in vivo; conditions: according to Porsolt et al. 1977
From the text: Furthermore, the antidepressive action properties of the compounds were investigated. For this, the influence of the compounds on the so-called "behavioral despair" behavior was investigated according to Porsolt et al. Arch. Int. Pharmacodyn. Ther. 229, 327 (1977).

Question: For `CCCN(CCNC(=O)OCC)C1Cc2c[nH]c3ccc(OC)c(c23)C1` (stereo not drawn) [Example 5, 6-Methoxy-4-[N-propyl-N-(ethyloxycarbonylaminoethyl)]amino-1,3,4,5-tetrahydrobenz[c,d]indole], which Ki (5-HT1 receptor) is on record?
Answer: 1 nM

Question: `COc1ccc2[nH]cc3c2c1CC(NCCCCN1C(=O)c2ccccc2S1(=O)=O)C3` (stereo not drawn) [Example 1, 6-Methoxy-4-[4-(N-1,2-benzisothiazol-3(2H)-one-1,1-dioxide-yl)]-butylamino-1,3,4,5-tetrahydrobenz[c,d]indole hydrochloride] was tested. Which Ki (5-HT1 receptor) did it give?
Answer: 2 nM

Question: With `CCCN(CCS(=O)(=O)N(C)C)C1Cc2c[nH]c3ccc(OC)c(c23)C1` (stereo not drawn) [Example 15, 6-Methoxy-4-[N-propyl-N-(dimethylsulphamoylethyl)]-amino-1,3,4,5-tetrahydrobenz[c,d]indole] as the compound, how does the Ki (5-HT1 receptor) read?
Answer: 8 nM

Question: `COc1ccc2[nH]cc3c2c1CC(NCCCCN1Cc2ccccc2S1(=O)=O)C3` (stereo not drawn) [Example 3, 6-Methoxy-4-[4-(N-2,3-dihydro-1,2-benzisothiazol-1,1-dioxid-yl)]-butylamino-1,3,4,5-tetrahydrobenz[c,d]indole hydrochloride] was tested. Which “influence on "behavioral despair" behavior (antidepressive action)” value (shortened to “influence”) [1] did it give?
Answer: positive action

Question: For `O=C1c2ccccc2S(=O)(=O)N1CCCCNC1Cc2cccc3[nH]cc(c23)C1` (stereo not drawn) [Example 2, 4-[4-(N-1,2-Benzisothiazol-3(2H)-one-1,1-dioxide-yl)]-butylamino-1,3,4,5-tetrahydrobenz[c,d]indole], which Ki (5-HT1 receptor) is on record?
Answer: 2 nM

Question: For `CCCN(CCNS(C)(=O)=O)C1Cc2c[nH]c3ccc(OC)c(c23)C1` (stereo not drawn) [Example 6, 6-Methoxy-4-[N-propyl-N-(methylsulphonylamidoethyl)]-amino-1,3,4,5-tetrahydrobenz[c,d]indole], which Ki (5-HT1 receptor) is on record?
Answer: 6 nM

Question: `CCCN(CCNS(=O)(=O)c1ccc2ccccc2c1)C1Cc2c[nH]c3ccc(OC)c(c23)C1` (stereo not drawn) [Example 9, 6-Methoxy-4-[N-propyl-N-(naphthylsulphonylamidoethyl)]-amino-1,3,4,5-tetrahydrobenz[c,d]indole hydrochloride] was tested. Which Ki (5-HT1 receptor) did it give?
Answer: 2 nM

Question: For `CCCCS(=O)(=O)NCCN(CCC)C1Cc2c[nH]c3ccc(OC)c(c23)C1` (stereo not drawn) [Example 7], which “influence” value [1] is on record?
Answer: positive action

Question: With `CCCNC1Cc2c[nH]c3ccc(OC)c(c23)C1` (stereo not drawn) [Example 13, 6-Methoxy-4-propylamino-1,3,4,5-tetrahydrobenz[c,d]indole] as the compound, how does the “influence” value [1] read?
Answer: positive action

Question: How did the Ki (5-HT1 receptor) turn out when `CCCN(CCNS(=O)(=O)c1ccc(C)cc1)C1Cc2c[nH]c3ccc(OC)c(c23)C1` (stereo not drawn) [Example 8, 6-Methoxy-4-[N-propyl-N-(tosylamidoethyl)]-amino-1,3,4,5-tetrahydrobenz[c,d]indole hydrochloride] was run?
Answer: 1 nM

Question: `COc1ccc2[nH]cc3c2c1CC(NCCCCN(C)S(=O)(=O)c1ccc(F)cc1)C3` (stereo not drawn) [Example 4, 6-Methoxy-4-[4-(N-4-fluorobenzenesulfonyl-N-methyl)amidobutyl]-amino-1,3,4,5-tetrahydrobenz[c,d]indole hydrochloride] was tested. Which “influence” value [1] did it give?
Answer: positive action

Question: With `COc1ccc2[nH]cc3c2c1CC(NCCCNS(=O)(=O)c1ccc(F)cc1)C3` (stereo not drawn) [Example 18, 6-Methoxy-4-(4-fluorophenylsulphonylamidopropyl)-amino-1,3,4,5-tetrahydrobenz[c,d]indole hydrochloride] as the compound, how does the Ki (5-HT1 receptor) read?
Answer: 0.7 nM
